Test results as given in US12577247B2 (BUGWORKS RESEARCH, INC., priority 2021, dated 2026).

Experiments:
[1] = molecular target: T1, A2B receptor (Homo sapiens, UniProt P29275); assay: A2bR antagonism IC50, cAMP TR-FRET in HEK-293 cells, high concentration of adenosine (30 μM); conditions: A2BR IC50 (nM) (@30 μM Adenosine), HEK-293 cells expressing A2B receptor; agonist adenosine 30 μM; 2% HSA; inhibition of cAMP;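 further: compounds preincubated 10 min with cells, then adenosine stimulation 30 min at room temperature in buffer with Rolipram 100 µM and EHNA 30 µM, TR-FRET read after 1 h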
T1 sequence (P29275 1-332): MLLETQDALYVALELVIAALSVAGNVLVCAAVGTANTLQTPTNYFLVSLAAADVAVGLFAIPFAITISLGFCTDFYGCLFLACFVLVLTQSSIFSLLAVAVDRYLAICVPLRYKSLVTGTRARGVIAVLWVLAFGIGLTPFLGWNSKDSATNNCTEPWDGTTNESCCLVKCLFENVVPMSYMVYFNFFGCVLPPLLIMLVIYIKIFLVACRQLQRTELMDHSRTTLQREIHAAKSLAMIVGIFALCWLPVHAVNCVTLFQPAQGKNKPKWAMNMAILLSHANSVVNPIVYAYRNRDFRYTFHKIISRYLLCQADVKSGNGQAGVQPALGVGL

[2] = molecular target: T2, A2A receptor (Homo sapiens, UniProt P29274); assay: A2aR antagonism IC50, cAMP TR-FRET in HEK-293 cells, high concentration of adenosine (30 μM); format: cell-based; conditions: HEK-293 cells expressing A2A receptor; agonist adenosine 30 μM; 2% HSA; inhibition of cAMP; read-out: A2AR IC50 (nM) (@30 μM Adenosine);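 further: compounds added 10 min before adenosine, then 30 min stimulation at room temperature in buffer with 100 µM rolipram and 30 µM EHNA, signal read 1 h after detection reagents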
T2 construct: host or cells: HEK-293
T2 sequence (P29274 whole entry): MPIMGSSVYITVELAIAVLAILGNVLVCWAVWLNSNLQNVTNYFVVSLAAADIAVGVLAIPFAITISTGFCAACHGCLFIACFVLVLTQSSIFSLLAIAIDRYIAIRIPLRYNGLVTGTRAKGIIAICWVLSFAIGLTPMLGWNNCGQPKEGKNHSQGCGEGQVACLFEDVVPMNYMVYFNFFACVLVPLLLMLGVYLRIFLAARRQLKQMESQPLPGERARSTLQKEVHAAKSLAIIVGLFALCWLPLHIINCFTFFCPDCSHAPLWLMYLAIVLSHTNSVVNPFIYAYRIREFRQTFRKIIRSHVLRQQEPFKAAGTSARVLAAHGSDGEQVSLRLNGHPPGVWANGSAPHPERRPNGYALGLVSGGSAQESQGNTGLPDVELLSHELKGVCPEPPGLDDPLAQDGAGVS

## CCc1c(C)nn2c(N)c(C#N)c(NCCc3ccn(CCCSC)n3)nc12 [Example 161, 7-amino-3-ethyl-2-methyl-5-((2-(1-(3-(methylthio)propyl)-1H-pyrazol-3-yl)ethyl)amino)pyrazolo[1,5-a]pyrimidine-6-carbonitrile]
[1]
  IC50: 3970 nM
[2]
  IC50: 2770 nM

## Cc1nn2c(N)c(C#N)c(NCCc3cccn(CCCO)c3=O)nc2c1C [Example 138, 7-amino-5-((2-(1-(3-hydroxypropyl)-2-oxo-1,2-dihydropyridin-3-yl)ethyl)amino)-2,3-dimethylpyrazolo[1,5-a] pyrimidine-6-carbonitrile]
[1]
  IC50: 2050 nM
[2]
  IC50: 88 nM

## CCc1c(C)nn2c(N)c(C#N)c(NCCc3ccn(C4(CNCC[S+](C)[O-])CC4)n3)nc12 (single isomer, unassigned; (+)) [Example 163b, (+)-7-amino-3-ethyl-2-methyl-5-((2-(1-(1-(((2-(methylsulfinyl)ethyl)amino)methyl)cyclopropyl)-1H-pyrazol-3-yl)ethyl)amino) pyrazolo[1,5-a]pyrimidine-6-carbonitrile]
[1]
  IC50: 12200 nM
[2]
  IC50: 82 nM

## Cc1nn2c(N)c(C#N)c(NCCc3ccn(C4(CCN)CC4)n3)nc2c1Cl [Example 151, 7-amino-5-((2-(1-(1-(2-aminoethyl)cyclopropyl)-1H-pyrazol-3-yl)ethyl)amino)-3-chloro-2-methylpyrazolo[1,5-a]pyrimidine-6-carbonitrile]
[1]
  IC50: 4610 nM
[2]
  IC50: 95 nM

## Cc1nn2c(N)c(C#N)c(NCCc3ccn(C4CCC4CNCCO)n3)nc2c1Cl (stereo not shown) [Example 117, 7-amino-3-chloro-5-((2-(1-(2-(((2-hydroxyethyl)amino)methyl)cyclobutyl)-1H-pyrazol-3-yl)ethyl)amino)-2-methylpyrazolo[1,5-a]pyrimidine-6-carbonitrile]
[1]
  IC50: 3060 nM
[2]
  IC50: 66 nM

## CCc1c(C)nn2c(N)c(C#N)c(NCCc3cccn(CCO)c3=O)nc12 [Example 108, 7-amino-3-ethyl-5-((2-(1-(2-hydroxyethyl)-2-oxo-1,2-dihydropyridin-3-yl)ethyl)amino)-2-methylpyrazolo[1,5-a]pyrimidine-6-carbonitrile]
[1]
  IC50: 1070 nM
[2]
  IC50: 392 nM

## CCc1c(C)nn2c(N)c(C#N)c(NCCc3cccn(CCCNC(C)=O)c3=O)nc12 [Example 145, N-(3-(3-(2-((7-amino-6-cyano-3-ethyl-2-methylpyrazolo[1,5-a]pyrimidin-5-yl)amino)ethyl)-2-oxopyridin-1(2H)-yl)propyl) acetamide]
[1]
  IC50: 1130 nM
[2]
  IC50: 294 nM

## Cc1nn2c(N)c(C#N)c(NCCc3ccn(C4(CN)CC4)n3)nc2c1Cl [Example 68, 7-amino-5-((2-(1-(1-(aminomethyl)cyclopropyl)-1H-pyrazol-3-yl)ethyl)amino)-3-chloro-2-methylpyrazolo[1,5-a]pyrimidine-6-carbonitrile]
[1]
  IC50: 9380 nM
[2]
  IC50: 161 nM

## CCc1c(C)nn2c(N)c(C#N)c(NCCc3ccn(C4CC(CO)C4)n3)nc12 (stereo not shown) [Example 123, 7-amino-3-ethyl-5-((2-(1-(3-(hydroxymethyl)cyclobutyl)-1H-pyrazol-3-yl)ethyl)amino)-2-methylpyrazolo[1,5-a]pyrimidine-6-carbonitrile]
[1]
  IC50: 1580 nM
[2]
  IC50: 405 nM

## Cc1nn2c(N)c(C#N)c(NCCc3ccn(C4(CCO)CC4)n3)nc2c1Cl [Example 112, 7-amino-3-chloro-5-((2-(1-(1-(2-hydroxyethyl)cyclopropyl)-1H-pyrazol-3-yl)ethyl)amino)-2-methylpyrazolo[1,5-a] pyrimidine-6-carbonitrile]
[1]
  IC50: 10800 nM
[2]
  IC50: 84 nM

## CCc1c(C)nn2c(N)c(C#N)c(NCCc3ccn(C4COCC4CO)n3)nc12 (single isomer, unassigned; (+)) [Example 122a, (+)-7-amino-3-ethyl-5-((2-(1-(4-(hydroxymethyl)tetrahydrofuran-3-yl)-1H-pyrazol-3-yl)ethyl)amino)-2-methyl pyrazolo[1,5-a]pyrimidine-6-carbonitrile]
[1]
  IC50: 707 nM
[2]
  IC50: 289 nM

## CCc1c(C)nn2c(N)c(C#N)c(NCCc3ccnn3CCCO)nc12 [Example 110, 7-amino-3-ethyl-5-((2-(1-(3-hydroxypropyl)-1H-pyrazol-5-yl)ethyl)amino)-2-methylpyrazolo[1,5-a]pyrimidine-6-carbonitrile]
[1]
  IC50: > 15000 nM
[2]
  IC50: > 15000 nM

## Cc1nn2c(N)c(C#N)c(NCCc3cccn(CCO)c3=O)nc2c1Cl [Example 93, 7-amino-3-chloro-5-((2-(1-(2-hydroxyethyl)-2-oxo-1,2-dihydropyridin-3-yl)ethyl)amino)-2-methylpyrazolo[1,5-a]pyrimidine-6-carbonitrile]
[1]
  IC50: 1230 nM
[2]
  IC50: 50 nM

## CCc1c(C)nn2c(N)c(C#N)c(NCCc3cccn(CCCO)c3=O)nc12 [Example 113, 7-amino-3-ethyl-5-((2-(1-(3-hydroxypropyl)-2-oxo-1,2-dihydropyridin-3-yl)ethyl)amino)-2-methylpyrazolo[1,5-a]pyrimidine-6-carbonitrile]
[1]
  IC50: 1050 nM
[2]
  IC50: 187 nM

## Cc1nn2c(N)c(C#N)c(NCCc3ccn(C4COCC4CO)n3)nc2c1Cl (stereo not shown) [Example 127, 7-amino-3-chloro-5-((2-(1-(4-(hydroxymethyl)tetrahydrofuran-3-yl)-1H-pyrazol-3-yl)ethyl)amino)-2-methylpyrazolo[1,5-a] pyrimidine-6-carbonitrile]
[1]
  IC50: 2170 nM
[2]
  IC50: 161 nM

## CCc1c(C)nn2c(N)c(C#N)c(NCCc3cccc(C(C)O)n3)nc12 (single isomer, unassigned; (-)) [Example 159b, (−)-7-amino-3-ethyl-5-((2-(6-(1-hydroxyethyl)pyridine-2-yl)ethyl)amino)-2-methylpyrazolo[1,5-a]pyrimidine-6-carbonitrile]
[1]
  IC50: 1020 nM
[2]
  IC50: 457 nM

## CCc1c(C)nn2c(N)c(C#N)c(NCCc3cccn(CCN)c3=O)nc12 [Example 126, 7-amino-5-((2-(1-(2-aminoethyl)-2-oxo-1,2-dihydropyridin-3-yl)ethyl)amino)-3-ethyl-2-methylpyrazolo[1,5-a] pyrimidine-6-carbonitrile]
[1]
  IC50: 3550 nM
[2]
  IC50: 1890 nM

## CCc1cnn2c(N)c(C#N)c(NCCc3ccn(C4(CO)CC4)n3)nc12 [Example 71, 7-amino-3-ethyl-5-((2-(1-(1-(hydroxymethyl)cyclopropyl)-1H-pyrazol-3-yl)ethyl)amino) pyrazolo[1,5-a] pyrimidine-6-carbonitrile]
[1]
  IC50: 2820 nM
[2]
  IC50: 158 nM

## CCCc1c(C)nn2c(N)c(C#N)c(NCCc3ccn(C4(CO)CC4)n3)nc12 [Example 158, 7-amino-5-((2-(1-(1-(hydroxymethyl)cyclopropyl)-1H-pyrazol-3-yl)ethyl)amino)-2-methyl-3-propylpyrazolo[1,5-a]pyrimidine-6-carbonitrile]
[1]
  IC50: 3350 nM
[2]
  IC50: 805 nM

## Cc1nn2c(N)c(C#N)c(NCCc3cc(C)n(C4(CO)CC4)n3)nc2c1Cl [Example 75, 7-amino-3-chloro-5-((2-(1-(1-(hydroxymethyl)cyclopropyl)-5-methyl-1H-pyrazol-3-yl)ethyl)amino)-2-methylpyrazolo[1,5-a]pyrimidine-6-carbonitrile]
[1]
  IC50: 7150 nM
[2]
  IC50: 43 nM

## CCc1c(C)nn2c(N)c(C#N)c(NCCc3ccn(C4COCC4CO)n3)nc12 (racemic) [Example 121, (+−)-7-amino-3-ethyl-5-((2-(1-(4-(hydroxymethyl)tetrahydrofuran-3-yl)-1H-pyrazol-3-yl)ethyl)amino)-2-methyl pyrazolo[1,5-a]pyrimidine-6-carbonitrile]
[1]
  IC50: 895 nM
[2]
  IC50: 245 nM

## Cc1nn2c(N)c(C#N)c(NCCc3cccc(CO)n3)nc2c1Br [Example 72, 7-amino-3-bromo-5-((2-(6-(hydroxymethyl)pyridine-2-yl)ethyl)amino)-2-methylpyrazolo[1,5-a]pyrimidine-6-carbonitrile]
[1]
  IC50: 3120 nM
[2]
  IC50: 362 nM

## Cc1nn2c(N)c(C#N)c(NCCc3ccn(C4CCC4CO)n3)nc2c1C (racemic) [Example 103, (+−)-7-amino-5-((2-(1-(2-(hydroxymethyl)cyclobutyl)-1H-pyrazol-3-yl)ethyl)amino)-2,3-dimethylpyrazolo[1,5-a] pyrimidine-6-carbonitrile]
[1]
  IC50: 2590 nM
[2]
  IC50: 100 nM

## CCc1c(C)nn2c(N)c(C#N)c(NCCc3ccn(C4(CCNC(C)=O)CC4)n3)nc12 [Example 149, N-(2-(1-(3-(2-((7-amino-6-cyano-3-ethyl-2-methylpyrazolo[1,5-a]pyrimidin-5-yl)amino)ethyl)-1H-pyrazol-1-yl)cyclopropyl)ethyl) acetamide]
[1]
  IC50: 988 nM
[2]
  IC50: 43 nM

## Cc1nn2c(N)c(C#N)c(NCCc3ccn(C4CCCC4CN)n3)nc2c1Cl (stereo not shown) [Example 118, 7-amino-5-((2-(1-(2-(aminomethyl)cyclopentyl)-1H-pyrazol-3-yl)ethyl)amino)-3-chloro-2-methylpyrazolo[1,5-a] pyrimidine-6-carbonitrile]
[1]
  IC50: 7850 nM
[2]
  IC50: 78 nM

## Cc1nn2c(N)c(C#N)c(NCCc3cccn(CCCN)c3=O)nc2c1C [Example 141, 7-amino-5-((2-(1-(3-aminopropyl)-2-oxo-1,2-dihydropyridin-3-yl)ethyl)amino)-2,3-dimethylpyrazolo[1,5-a]pyrimidine-6-carbonitrile]
[1]
  IC50: 4750 nM
[2]
  IC50: 679 nM
